Measurements reported in US10519504B2, “Methods for treatment of oncological disorders using epimetabolic shifters, multidimensional intracellular molecules, or environmental influencers” (Berg LLC, priority 2009, dated 2019).

Tests used:
Caspase-3 = test: Western blot of building block components, Caspase-3; format: cell-based; conditions: for Caspase-3 expression: Skmel-28; for Caspase-3 expression (summary): oncogenic cells
Description: (§1) Skmel-28 melanoma cells were cultured in DMEM/F12 supplemented with 5% Fetal Bovine Serum (FBS) and 1× final concentration of Antibiotics. The cells were grown to 85% confluency and treated with building block components for 3, 6, 12 and 24 hours. The cells were then pelleted and a Western blot analysis was performed. The test building block components included L-Phenylylalanine, DL-Phenylylalanine, D-Phenylylalanine, L-Tyrosine, DL-Tyrosine, D-Tyrosine, 4-Hydroxy-phenylpyruvate, phenylacetate, 3-methoxy-4-hydroxymandelate (vanillylmandelate or VMA), vanillic acid, 4-hydroxy-benzoate, pyridoxine, panthenol, mevalonic acid, Acetylglycine, Acetyl-CoA, Farnesyl, and 2,3-Dimethoxy-5-methyl-p-benzoquinone.
(§2) In the Western Blot Analysis, the cells were pelleted in cold PBS, lysed, and the protein levels were quantified using a BCA protein assay. The whole cell lysate was loaded in a 4% loading 12% running Tris-HCl gel. The proteins were then transferred to a nitrocellulose paper then blocked with a 5% milk Tris-buffered solution for 1 hour. The proteins were then exposed to primary antibodies (Bcl-2 and Caspase-3) overnight. The nitrocellulose paper was then exposed to Pico Chemilluminescent for 5 min and the protein expression was recorded. After exposure, actin was quantified using the same method. Using ImageJ the levels of protein expression were quantified. A t-Test was used to analyze for statistical significance.

Bcl-2 = test: Western blot of building block components, Bcl-2; format: cell-based; conditions: for Bcl-2 (summary): oncogenic cells
Description: as §1, §2

[1] = tested on: neonatal fibroblast cells; test: Cell proliferation assay (coulter counter); format: cell-based; conditions: HB 500 nM, 5 μM, 25 μM, alone and with benzoquinone 25, 50, 100 μM; 24 hours
Description: A cell proliferation assay was also performed on neonatal fibroblast cells. The concentrations of HB tested were 500 nM, 5 μM, and 25 μM. HB was also tested in combination with benzoquinone at a concentrations of 25 μM, 50 μM, and 100 μM. Melanoma cells were seeded at 40 k cells per well and were treated for 24 hours. The cells were trypsinized and quantified using a coulter counter.

Melanoma cells = test: Cell proliferation assay (cell count) of building block combinations; format: cell-based
Description: This set of experiments used a cell proliferation assay to assess the effect of combining different building block molecules on cell proliferation.
The first study examined the effect of combining 4-Hydroxy-Benzoate with Benzoquinone. Cells were incubated for 48 hours, after which a cell count was performed for the live cells. Each test group was compared to the control, and each combination groups were compared to Benzoquinone control. The compounds were statistically analyzed for the addition of Benzoquinone.
Additional studies were performed testing additional molar ratios. For the first test 4-Hydroxybenzoic were tested at concentrations of 500 nM, 1 μM, and 50 μM. These concentrations were tested in combination with 2,3-Dimethoxy-5-methyl-p-benzoquinone (Benzo). The concentration of Benzo tested were 25 μM, 50 μM, and 100 μM. Melanoma cells were grown to 80% confluency and seeded in 6 well plates at a concentration of 40K cells per well. The cells were treated with CoQ10, 4-Hydroxybenzoate, Benzo, and a combination of 4-Hydroxybenzoate/Benzo.
A T-test was performed with p<0.05 as statistically significant.

[2] = tested on: induced pancreatic cancer; conditions: Group H: 5 mg/kg
cancer cells = conditions: cited from earlier work
[3] = Skmel-28, 24 hours, concentration not given
[4] = all time points and concentrations tested (500 nM, 1 μM, 25 μM, 50 μM)
[5] = Skmel-28, all time points and concentrations tested (500 nM, 1 μM, 25 μM, 50 μM)

NC(Cc1ccccc1)C(=O)O (racemic) [DL-Phenylalanine]
Caspase-3 expression (Caspase-3; 3 hours, concentration not given): statistically significant increase in Caspase-3 | Bcl-2 expression (Bcl-2; [3]): statistically significant decrease in Bcl-2

NC(Cc1ccc(O)cc1)C(=O)O (racemic) [DL-Tyrosine]
Caspase-3 expression (Caspase-3; 5 μM and 15 μM, 12 hours): increase in Caspase-3 expression | Bcl-2 expression (Bcl-2; Skmel-28, 1 μM and 15 μM, 12 hours): statistical decrease in Bcl-2 expression | Bcl-2 expression (Bcl-2; Skmel-28, 5 μM, 24 hours): statistical decrease in Bcl-2 expression

O=C(O)C(=O)Cc1ccc(O)cc1 [4-Hydroxy-phenylpyruvate]
Caspase-3 expression (Caspase-3; 5 μM and 15 μM, 12 hours): significant increase in Caspase-3 expression | Caspase-3 expression (summary) (Caspase-3): increase in Caspase-3 expression | Bcl-2 expression (Bcl-2; Skmel-28, 5 μM and 15 μM, 24 hours): significant reduction in Bcl-2 expression | Bcl-2 (summary) (Bcl-2): significant reduction in Bcl-2

O=C(O)c1ccc(O)cc1 [4-Hydroxybenzoate, 4-hydroxy-benzoate]
fibroblast cell number [1]: did not show a significant reduction in fibroblast cells | Bcl-2 expression (Bcl-2; Skmel-28, 15 μM, 24 hours): significant reduction in Bcl-2 expression | cell number vs control (Melanoma cells; 48 hours): significant decrease in cell number | cell proliferation (Melanoma cells; HB 500 nM, 1 μM, 50 μM): significant decrease in cell proliferation

CC(=O)SCCNC(=O)CCNC(=O)[C@H](O)C(C)(C)COP(=O)(O)OP(=O)(O)OC[C@H]1O[C@@H](n2cnc3c(N)ncnc32)[C@H](O)[C@@H]1OP(=O)(O)O [Acetyl-CoA]
Caspase-3 expression (Caspase-3; [4]): no significant observed reduction in Bcl-2 or increase in Caspase-3 expression | Bcl-2 expression (Bcl-2; [5]): no significant observed reduction in Bcl-2

CC(=O)NCC(=O)O [Acetylglycine]
Bcl-2 expression (Bcl-2; Skmel-28, 5 μM and 25 μM, 12 hours): significant decrease in Bcl-2 expression | Bcl-2 expression (Bcl-2; Skmel-28, 100 μM, 24 hour): significant decrease in Bcl-2

N[C@H](Cc1ccccc1)C(=O)O [D-Phenylalanine]
Caspase-3 expression (Caspase-3; 5 μM and 100 μM, 6 hours): significant increase in Caspase-3 expression | Bcl-2 expression (Bcl-2; Skmel-28, 5 μM and 25 μM, 3 hours): significant reduction | Bcl-2 expression (Bcl-2; Skmel-28, 5 μM, 25 μM and 100 μM, 6 hours): significant reduction in Bcl-2 expression

N[C@H](Cc1ccc(O)cc1)C(=O)O [D-Tyrosine]
Caspase-3 expression (Caspase-3; 1 μM, 12 and 24 hour): increase in Caspase-3 expression | Caspase-3 expression (Caspase-3; 5 μM, 3, 12 and 24 time periods): significantly increased | Caspase-3 expression (Caspase-3; 5 μM, 12 hour): increase in Caspase-3 expression | Bcl-2 expression (Bcl-2; Skmel-28, 5 μM and 15 μM, 12 and 24 hours): reduction in Bcl-2 expression

COc1cccc2c1C(=O)c1c(O)c3c(c(O)c1C2=O)C[C@@](O)(C(=O)CO)C[C@@H]3O[C@H]1C[C@H](N)[C@H](O)[C@H](C)O1 [Doxorubicin, reference compound]
survival after 28 days [2]: a significant number of the animals in Group H had died due to the toxicity of Doxorubicin

N[C@@H](Cc1ccccc1)C(=O)O [L-Phenylalanine]
Caspase-3 expression (Caspase-3; 25 μM, 12 hours): statistically significant increase in Caspase-3 | Caspase-3 expression (summary) (Caspase-3): increase in Caspase-3 expression | Bcl-2 expression (Bcl-2; Skmel-28, 5 μM, 6 hours): statistically significant decrease in Bcl-2 | Bcl-2 expression (Bcl-2; Skmel-28, 25 μM, 12 hours): statistically significant decrease in Bcl-2 | Bcl-2 expression (Bcl-2; Skmel-28, 100 μM, 3 hours and 12 hours): statistically significant decrease in Bcl-2 | Bcl-2 expression compared to the control (Bcl-2; Skmel-28, remaining time points, not statistically significant): constant trend for the decrease in Bcl-2 | Bcl-2 (summary) (Bcl-2): significant reduction in Bcl-2

N[C@@H](Cc1ccc(O)cc1)C(=O)O [L-Tyrosine]
Caspase-3 expression (Caspase-3; 500 nM, 12 hours): statistically significant increase in Caspase-3 | Caspase-3 expression (summary) (Caspase-3): increase in Caspase-3 expression | Bcl-2 expression (Bcl-2; Skmel-28, 5 μM, 24 hours): statistically significant decrease in Bcl-2 | Bcl-2 expression (Bcl-2; Skmel-28, 500 μM and 5 μM, 24 hours): statistically significant decrease in Bcl-2 | Bcl-2 (summary) (Bcl-2): significant reduction in Bcl-2

C[C@@](O)(CCO)CC(=O)O [Mevalonic Acid, mevalonic acid]
Caspase-3 expression (Caspase-3; [4]): no significant reduction in Bcl-2 expression or an increase in Caspase-3 expression | Bcl-2 expression (Bcl-2; [5]): no significant reduction in Bcl-2 expression

CC(C)(CO)[C@@H](O)C(=O)NCCCO [Panthenol, panthenol]
Bcl-2 expression (Bcl-2; melanoma cells, 25 μM): significant reduction in Bcl-2 expression

Cc1ncc(CO)c(CO)c1O [Pyridoxine, pyridoxine]
Bcl-2 expression (Bcl-2; [3]): significant reduction in Bcl-2

COc1cc(C(O)C(=O)O)ccc1O (stereo not drawn) [VMA, 3-methoxy-4-hydroxymandelate]
Bcl-2 expression, trend (Bcl-2; Skmel-28, 100 nM to 100 μM): downward trend of Bcl-2 expression | apoptotic effect (Bcl-2, Caspase-3) (Bcl-2; Skmel-28, 100 nM to 100 μM): no statistically significant apoptotic effect

COc1cc(C(=O)O)ccc1O [Vanillic Acid, vanillic acid]
Caspase-3 expression (Caspase-3; 15 μM, 24 hours): significant increase in Caspase-3 expression | Bcl-2 expression (Bcl-2; Skmel-28, 500 nM and 5 μM, 24 hour): significantly reduce Bcl-2 expression | Bcl-2 expression (Bcl-2; Skmel-28, 15 μM, 3 hours): reduction in Bcl-2 expression

C=C1/C(=C\C=C2/CCC[C@]3(C)[C@@H]([C@H](C)CCCC(C)(C)O)CC[C@@H]23)C[C@@H](O)C[C@@H]1O [Vitamin D3, 1α, 25-dihydroxyvitamin D3]
expression of BCL2 and BCL-XL (cancer cells; Deeb et al. 2007): repressing the expression of the anti-apoptotic, pro-survival proteins BCL2 and BCL-XL | expression of pro-apoptotic proteins (BAX, BAK, BAD) (cancer cells; Deeb et al. 2007): inducing the expression of pro-apoptotic proteins | p21WAFI/CIPI gene transcription (cancer cells; Deeb et al. 2007): induce gene transcription of the cyclin-dependent kinase inhibitor p21WAFI/CIPI | expression of VEGF (cancer cells; Masuda and Jones, 2006): inhibit the expression of vascular endothelial growth factor (VEGF) | proliferation of tumor-derived endothelial cells (cancer cells; Masuda and Jones, 2006): inhibit the proliferation of some tumor-derived endothelial cells
